# According to ChEMBL document CHEMBL1125126, “Torsionally and hydrophobically modified 2,3-diarylindenes as estrogen receptor ligands” (J Med Chem, 1990):
# Molecular target: Estrogen receptor (Rattus norvegicus) (UniProt P06211+Q62986)
# Assay: Displacement of [3H]estradiol from rat uterine estrogen receptor
# Type: protein assay
row,RBA [%],SMILES
1,12,Oc1ccc2c(c1)CC(c1ccccc1)=C2c1ccccc1F
2,11,Cc1ccccc1C1=C(c2ccccc2)Cc2cc(O)ccc21
3,100,Cc1ccccc1C1=C(c2ccccc2)c2ccc(O)cc2C1

# The next lines start with the compound.
row,SMILES,RBA [%]
1,Oc1ccc(C2=C(c3ccccc3)Cc3cc(O)ccc32)c(F)c1,9.6
2,Cc1ccccc1C1=C(c2ccc(O)cc2)c2ccc(O)cc2C1,23
3,Cc1ccc(C2=C(c3ccccc3)Cc3cc(O)ccc32)cc1,1.7
4,Oc1ccc2c(c1)CC(c1ccccc1F)=C2c1ccccc1,49
